Laboratory results published in patent US20080176932A1, “Pharmaceutical Compositions Containing Baicalein And Baicalin With Synergistic Effect In Tumor Treatment” (priority 2005, published 2008).
Read-outs that look alike come from different tables or passages of the source.

How the values were obtained:
[1] = tested on: Murine melanoma cell line B 16; experiment: Solid tumor transplant model, baicalein and baicalin; format: in vivo
Description: (§1) C57BL/6 female mice (weight approximately 20 g) were used in this study. Murine melanoma cell line B 16 cells, 2×10^6 tumor cells were implanted s.c. into the armpit of each mice after two passenges in vitro cultured. On the next day after implantation, mice were randomly grouped at 10 per group and received 0.1 ml/10 g weight of the drugs. […] The number of mice of each group was 10. Mice were weighed before and post the treatment. Animals were killed on day 15, and the tumors were removed and weighted.

L1210 cells [2] = format: in vivo; settings: 5-FU 10 mg/kg s.c., day 1-10
Description: (§2) L1210 cells on the growth phase were injected at 1×10^5 cells via I.P. into BDF1 female mice (weight approximately 20 g). The next day of implantation, mice were grouped, and received an injection of 0.1 ml/10 g weight of the drug. […] The number of mice of each group was 10. Mice were weighed before and after the treatment. Survival time of each mouse was recorded. The results of changes in increasing of life span of mice were used in assessment of response. The increase of life span was determined as; increase of life span rate=(median survival time of treated animals/median survival time of control animals−1)×100%, the data were analyzed by t-test.

L1210 cells [3] = format: in vivo; settings: day 1-10; for ILS(%) increase of life span: L1210 mice
Description: as §2

[4] = tested on: Murine melanoma cell line B 16; experiment: Solid tumor transplant model, baicalein and scutellarin; format: in vivo, C57BL/6 female mice; settings: for Final Tumor WT. (g) Mean ± SD / Tumor Growth Inhibition %: day 15
Description: as §1, with “0.1ml/10” for “0.1 ml/10”

[5] = tested on: Human colon cancer cell line HCT116; experiment: MTT growth inhibition, baicalein and scutellarin single or combination; format: cell-based
[6] = tested on: Human hung cancer cell line A549; experiment: as above; format: cell-based
[7] = tested on: human liver cancer cell line HepG2; experiment: as above; format: cell-based
[8] = tested on: Human breast cancer cell line MCF-7; experiment: as above; format: cell-based
Description: (§3) Cells were seeded onto 96-well plate at 5×10^3 cells/well, and grown in culture medium containing 10% fetal bovine serum (FBS). […] The viable cell growth was determined by MTT assay after 72-h continuous exposure.
(§4) A CI below 1 is an indication of synergy, while a CI equal to 1 represents addition, and a CI above 1 indicates antagonism.

[9] = tested on: Human prostate cancer cell line PC3; experiment: as above; format: cell-based
Description: as §3, §4

[10] = tested on: Human esophagus cancer cell line TE2; experiment: as above; format: cell-based
Description: as §3, §4

[11] = tested on: Human leukemia cell line HL60; experiment: as above; format: cell-based
[12] = tested on: Human gastric cancer cell line MKN28; experiment: as above; format: cell-based
[13] = B16 mice, day 15, 5-FU 10 mg/kg s.c., day 1-10
[14] = B16 mice, 5-FU 10 mg/kg s.c., day 1-10
[15] = female, C57BL/6, mouse, in vivo, 15 days
[16] = B16 mice, Sc 25 mg/kg i.p., day 1-10
[17] = B16 mice, Sc 50 mg/kg i.p., day 1-10
[18] = B16 mice, Sc 100 mg/kg i.p., day 1-10
[19] = B16 mice, Sc 200 mg/kg i.p., day 1-10

O=c1[nH]cc(F)c(=O)[nH]1 [5-FU, 5-fluorouracil, reference compound]
Final Tumor WT. (g) Mean ± SD [1, 13]: 1.35 ± 0.1 g | Tumor Growth Inhibition % [1, 13]: 38% | Weight Change % [1, 14]: <5% | Number of mice Surviving through 15 days/total number [1, 15]: 10/10 | Number of mice Surviving through 15 days/total number (L1210 cells [2]): 10/10 | ILS(%) increase of life span (L1210 cells [2]; L1210 mice): 79% | Number of mice Through surviving 15 days/total number (L1210 cells [3]; 5-FU 10 mg/kg s.c.): 10/10 | ILS(%) increase of life span (L1210 cells [3]; 5-FU 10 mg/kg s.c.): 79% | Final Tumor WT. (g) Mean ± SD [4, 14]: 1.35 ± 0.1 g | Tumor Growth Inhibition % [4, 14]: 38% | Number of mice through 15 days/total number [4, 15]: 10/10

O=C(O)[C@H]1O[C@@H](Oc2cc3oc(-c4ccc(O)cc4)cc(=O)c3c(O)c2O)[C@H](O)[C@@H](O)[C@@H]1O [Sc, scutellarin]
Inhibition of cell growth (%) ([5]; single dose 2.5 μm): 10.05 ± 2.5% | Inhibition of cell growth (%) ([5]; single dose 5 μm): 15.1 ± 3% | Inhibition of cell growth (%) ([5]; single dose 10 μm): 49 ± 2.2% | Inhibition of cell growth (%) ([5]; single dose 20 μm): 83.7 ± 2.2% | Inhibition of cell growth (%) ([5]; single dose 40 μm): 95 ± 2.8% | Inhibition of cell growth (%) ([6]; single dose 2.5 μm): 1 ± 2.1% | Inhibition of cell growth (%) ([6]; single dose 5 μm): 7.7 ± 3.3% | Inhibition of cell growth (%) ([6]; single dose 10 μm): 32.33 ± 2.7% | Inhibition of cell growth (%) ([6]; single dose 20 μm): 62.65 ± 2.5% | Inhibition of cell growth (%) ([6]; single dose 40 μm): 91 ± 2.7% | Inhibition of cell growth (%) ([7]; single dose 2.5 μm): 5.2 ± 2.1% | Inhibition of cell growth (%) ([7]; single dose 5 μm): 7.7 ± 2.3% | Inhibition of cell growth (%) ([7]; single dose 10 μm): 43.35 ± 2.7% | Inhibition of cell growth (%) ([7]; single dose 20 μm): 86.1 ± 2.9% | Inhibition of cell growth (%) ([7]; single dose 40 μm): 88.45 ± 2.5% | ILS(%) increase of life span (L1210 cells [3]; Sc 25 mg/kg i.p.): 11.9% | ILS(%) increase of life span (L1210 cells [3]; Sc 50 mg/kg i.p.): 26% | ILS(%) increase of life span (L1210 cells [3]; Sc 100 mg/kg i.p.): 37% | ILS(%) increase of life span (L1210 cells [3]; Sc 200 mg/kg i.p.): 51% | Number of mice Through surviving 15 days/total number (L1210 cells [3]; Sc 25 mg/kg i.p.): 10/10 | Number of mice Through surviving 15 days/total number (L1210 cells [3]; Sc 50 mg/kg i.p.): 10/10 | Number of mice Through surviving 15 days/total number (L1210 cells [3]; Sc 100 mg/kg i.p.): 10/10 | Number of mice Through surviving 15 days/total number (L1210 cells [3]; Sc 200 mg/kg i.p.): 10/10 | Final Tumor WT. (g) Mean ± SD [4, 16]: 1.81 ± 0.11 g | Tumor Growth Inhibition % [4, 16]: 17% | Final Tumor WT. (g) Mean ± SD [4, 17]: 1.72 ± 0.08 g | Tumor Growth Inhibition % [4, 17]: 21.1% | Final Tumor WT. (g) Mean ± SD [4, 18]: 1.48 ± 0.12 g | Tumor Growth Inhibition % [4, 18]: 32.1% | Final Tumor WT. (g) Mean ± SD [4, 19]: 1.22 ± 0.09 g | Tumor Growth Inhibition % [4, 19]: 44% | Number of mice through 15 days/total number [4, 16]: 10/10 | Weight Change % [4, 16]: <5% | Number of mice through 15 days/total number [4, 17]: 10/10 | Weight Change % [4, 17]: <5% | Number of mice through 15 days/total number [4, 18]: 10/10 | Weight Change % [4, 18]: <5% | Number of mice through 15 days/total number [4, 19]: 10/10 | Weight Change % [4, 19]: <5% | Inhibition of cell growth (%) ([8]; single dose 2.5 μm): 5 ± 2.5% | Inhibition of cell growth (%) ([8]; single dose 5 μm): 20.71 ± 3.2% | Inhibition of cell growth (%) ([8]; single dose 10 μm): 71 ± 2.2% | Inhibition of cell growth (%) ([8]; single dose 20 μm): 87.5 ± 2.5% | Inhibition of cell growth (%) ([8]; single dose 40 μm): 95.57 ± 2.2% | Inhibition of cell growth (%) ([9]; single dose 2.5 μm): 2 ± 5% | Inhibition of cell growth (%) ([9]; single dose 5 μm): 18 ± 3% | Inhibition of cell growth (%) ([9]; single dose 10 μm): 39 ± 7% | Inhibition of cell growth (%) ([9]; single dose 20 μm): 72 ± 9% | Inhibition of cell growth (%) ([9]; single dose 40 μm): 91.8 ± 5% | Inhibition of cell growth (%) ([10]; single dose 2.5 μm): 4.7 ± 2.2% | Inhibition of cell growth (%) ([10]; single dose 5 μm): 12.97 ± 3.1% | Inhibition of cell growth (%) ([10]; single dose 10 μm): 27.1 ± 2.7% | Inhibition of cell growth (%) ([10]; single dose 20 μm): 66 ± 2.9% | Inhibition of cell growth (%) ([10]; single dose 40 μm): 84.62 ± 2.5% | Inhibition of cell growth (%) ([11]; single dose 2.5 μm): 2.25 ± 2.7% | Inhibition of cell growth (%) ([11]; single dose 5 μm): 8.64 ± 3.2% | Inhibition of cell growth (%) ([11]; single dose 10 μm): 37 ± 2.2% | Inhibition of cell growth (%) ([11]; single dose 20 μm): 64.2 ± 2.7% | Inhibition of cell growth (%) ([11]; single dose 40 μm): 88.5 ± 2.5% | Inhibition of cell growth (%) ([12]; single dose 2.5 μm): 18.83 ± 2.2% | Inhibition of cell growth (%) ([12]; single dose 5 μm): 21.23 ± 3.5% | Inhibition of cell growth (%) ([12]; single dose 10 μm): 31.65 ± 2.8% | Inhibition of cell growth (%) ([12]; single dose 20 μm): 35.34 ± 2.8% | Inhibition of cell growth (%) ([12]; single dose 40 μm): 75.34 ± 2.7%
